In the experiment the target is T1, c-kit (Homo sapiens, UniProt P10721).
T1 construct: human Mo7e cells which endogenously express c-kit; endogenous in cells; host or cells: human Mo7e cells (promegakaryocytic leukemia line), stimulated with human recombinant SCF
Nature of the experiment: Mo7e cell proliferation assay (SCF dependent proliferation). In kind it is cell-based. Conditions: read-out: c-kit (Mo7e). How it is done: Mo7e Cell Proliferation Assay The compounds of Table 1 and Table 2 were tested for inhibition of SCF dependent proliferation using human Mo7e cells which endogenously express c-kit in a 384 well format. […] After 48 hours of incubation at 37° C., cell viability was measured by adding 25 uL of CellTiter Glo (Promega) to the cells and the luminescence was measured by a […] camera (Molecular Devices). […] The IC50 value is given as that concentration of the test compound in question that provoke a response halfway between the baseline and maximum responses.

Setting [1] is: Table 1, human Mo7e cells stimulated with SCF, 48 hours, CellTiter Glo, 1% FBS.
The mark [2] stands for this setting: Table 2, human Mo7e cells stimulated with SCF, 48 hours, CellTiter Glo, 1% FBS.
Where [3] appears, read: Table 2, values marked *: 20% FBS instead of 1% FBS.

Read-outs that look alike come from different tables or passages of the source.

T1 sequence (P10721 26-976): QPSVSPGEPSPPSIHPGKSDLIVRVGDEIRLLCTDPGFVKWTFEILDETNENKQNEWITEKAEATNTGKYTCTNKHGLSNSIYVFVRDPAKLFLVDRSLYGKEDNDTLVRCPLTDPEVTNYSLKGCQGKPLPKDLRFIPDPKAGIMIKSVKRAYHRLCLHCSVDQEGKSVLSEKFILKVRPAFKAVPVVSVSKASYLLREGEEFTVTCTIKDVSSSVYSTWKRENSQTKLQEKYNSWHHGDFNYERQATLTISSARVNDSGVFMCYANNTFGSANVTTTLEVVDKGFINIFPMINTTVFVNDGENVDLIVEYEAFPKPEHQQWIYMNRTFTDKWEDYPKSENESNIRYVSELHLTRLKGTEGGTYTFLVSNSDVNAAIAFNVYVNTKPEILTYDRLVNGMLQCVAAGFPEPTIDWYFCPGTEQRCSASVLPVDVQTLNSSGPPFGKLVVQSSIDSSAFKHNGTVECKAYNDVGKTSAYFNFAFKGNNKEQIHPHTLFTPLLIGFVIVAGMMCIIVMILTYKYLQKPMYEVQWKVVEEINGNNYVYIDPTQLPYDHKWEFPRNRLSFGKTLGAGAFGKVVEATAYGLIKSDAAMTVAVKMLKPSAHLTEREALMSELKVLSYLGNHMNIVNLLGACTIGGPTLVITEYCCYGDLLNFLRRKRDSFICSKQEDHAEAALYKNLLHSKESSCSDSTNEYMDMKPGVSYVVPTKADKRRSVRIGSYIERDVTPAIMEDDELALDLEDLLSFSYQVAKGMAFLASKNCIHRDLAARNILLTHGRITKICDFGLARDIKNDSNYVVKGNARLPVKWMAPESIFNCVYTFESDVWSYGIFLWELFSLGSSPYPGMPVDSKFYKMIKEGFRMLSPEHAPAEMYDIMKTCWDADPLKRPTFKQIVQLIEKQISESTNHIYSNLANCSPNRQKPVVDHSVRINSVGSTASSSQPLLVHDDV

For the compound `Cc1ccc(-c2noc(C3(C)CN(S(C)(=O)=O)C3)n2)cc1NC(=O)c1cnc2ccccn12` [F58], the IC50 under setting [1] stood at 0.089 µM.

On to `COC(=O)N1CC(c2nc(-c3ccc(C)c(NC(=O)c4cnc5ccc(CCCC#N)cn45)c3)no2)C1` [F59, methyl 3-(3-(3-(6-(3-cyanopropyl)imidazo[1,2-a]pyridine-3-carboxamido)-4-methylphenyl)-1,2,4-oxadiazol-5-yl)azetidine-1-carboxylate], for which the IC50 under setting [1] amounted to 0.033 µM. As to `COC(=O)N1CC(c2nc(-c3ccc(C)c(NC(=O)c4cnc5ccc(OC)cn45)c3)no2)C1` [F60], under setting [1], the IC50 is 0.028 µM. As to `COC(=O)N1CC(c2nc(-c3ccc(C)c(NC(=O)c4cnc5cc(C)ccn45)c3)no2)C1` [F61, methyl 3-(3-(4-methyl-3-(7-methylimidazo[1,2-a]pyridine-3-carboxamido)phenyl)-1,2,4-oxadiazol-5-yl)azetidine-1-carboxylate], the IC50 under setting [1] is 0.026 µM. On the same count and under the same terms, in the case of `COC(=O)N1CC(c2nc(-c3ccc(C)c(NC(=O)c4cnc5ccc(C)cn45)c3)no2)C1` [F62, methyl 3-(3-(4-methyl-3-(6-methylimidazo[1,2-a]pyridine-3-carboxamido)phenyl)-1,2,4-oxadiazol-5-yl)azetidine-1-carboxylate] it was 0.036 µM. Turning to `COC(=O)N1CC(c2nc(-c3ccc(C)c(NC(=O)c4cnc5cc(-c6cnn(CCN7CCOCC7)c6)ccn45)c3)no2)C1` [F63], under setting [1], the IC50 is 0.013 µM.

For `COC(=O)N1CC(c2nc(-c3ccc(C)c(NC(=O)c4cnc5ccc(CCC#N)cn45)c3)no2)C1` [F64, methyl 3-(3-(3-(6-(2-cyanoethyl)imidazo[1,2-a]pyridine-3-carboxamido)-4-methylphenyl)-1,2,4-oxadiazol-5-yl)azetidine-1-carboxylate], the IC50 under setting [1] came out at 0.064 µM.

Take `COC(=O)N1CC(c2nc(-c3ccc(C)c(NC(=O)c4cnc5ccc(CCC(C)=O)cn45)c3)no2)C1` [F65, methyl 3-(3-(4-methyl-3-(6-(3-oxobutyl)imidazo[1,2-a]pyridine-3-carboxamido)phenyl)-1,2,4-oxadiazol-5-yl)azetidine-1-carboxylate]: the IC50 under setting [1] was found to be 0.033 µM.

Consider `COC(=O)N1CC(c2nc(-c3ccc(C)c(NC(=O)c4cnc5ccc(CCN6CCOCC6)cn45)c3)no2)C1` [F66, methyl 3-(3-(4-methyl-3-(6-(2-morpholinoethyl)imidazo[1,2-a]pyridine-3-carboxamido)phenyl)-1,2,4-oxadiazol-5-yl)azetidine-1-carboxylate], for which the IC50 under setting [1] was 0.05 µM.

`COC(=O)N1CC(c2nc(-c3ccc(C)c(NC(=O)c4cnc5ccc(CCC(C)(C)O)cn45)c3)no2)C1` [F67, methyl 3-(3-(3-(6-(3-hydroxy-3-methylbutyl)imidazo[1,2-a]pyridine-3-carboxamido)-4-methylphenyl)-1,2,4-oxadiazol-5-yl)azetidine-1-carboxylate]: the IC50 under setting [1] turned out to be 0.029 µM.

Take `COC(=O)N1CC(c2nc(-c3ccc(C)c(NC(=O)c4cnc5cc(-c6cc[nH]n6)ccn45)c3)no2)C1` [F68, methyl 3-(3-(3-(7-(1H-pyrazol-3-yl)imidazo[1,2-a]pyridine-3-carboxamido)-4-methylphenyl)-1,2,4-oxadiazol-5-yl)azetidine-1-carboxylate]: under setting [1], the IC50 came to 0.013 µM. Still for that read-out and setting: with `Cc1ccc(Nc2noc(C3CCOCC3)n2)cc1NC(=O)c1cnc2ccccn12` [F69] the figure was 0.039 µM. The same measure, in the same setting: in the case of `Cc1ccc(Nc2noc(C3CCCCO3)n2)cc1NC(=O)c1cnc2ccccn12` (stereo not shown) [F70] it was 0.006 µM; in that of `Cc1ccc(Nc2noc([C@H]3CCCO3)n2)cc1NC(=O)c1cnc2ccccn12` [F71], 0.011 µM.

`Cc1ccc(Nc2noc([C@@H]3CCCO3)n2)cc1NC(=O)c1cnc2ccccn12` [F72]: the IC50 under setting [1] is 0.006 µM. As to `COC(=O)N1CC(c2nc(-c3ccc(C)c(NC(=O)c4cnc5cc(CCC(C)=O)ccn45)c3)no2)C1` [F73, methyl 3-(3-(4-methyl-3-(7-(3-oxobutyl)imidazo[1,2-a]pyridine-3-carboxamido)phenyl)-1,2,4-oxadiazol-5-yl)azetidine-1-carboxylate], the IC50 under setting [1] stood at 0.03 µM. On the same count and under the same terms, in the case of `COC(=O)N1CC(c2nc(-c3ccc(C)c(NC(=O)c4cnc5cc(CCC(C)(C)O)ccn45)c3)no2)C1` [F74, methyl 3-(3-(3-(7-(3-hydroxy-3-methylbutyl)imidazo[1,2-a]pyridine-3-carboxamido)-4-methylphenyl)-1,2,4-oxadiazol-5-yl)azetidine-1-carboxylate] it was 0.051 µM. As to `Cc1ccc(-c2nc(N3CCOCC3)no2)cc1NC(=O)c1cnc2ccccn12` [F75, N-(2-methyl-5-(3-morpholino-1,2,4-oxadiazol-5-yl)phenyl)imidazo[1,2-a]pyridine-3-carboxamide], the IC50 under setting [1] was determined as 0.061 µM. Take `[2H]c1c([2H])c([2H])n2c(C(=O)Nc3cc(-c4noc(C5CN(C(=O)OC)C5)n4)ccc3C)cnc2c1[2H]` [F76, methyl 3-(3-(4-methyl-3-(5,6,7,8-(D4)imidazo[1,2-a]pyridine-3-carboxamido)phenyl)-1,2,4-oxadiazol-5-yl)azetidine-1-carboxylate]: the IC50 under setting [1] was 0.051 µM.

For `Cc1ccc(-c2noc(N3CCC3)n2)cc1NC(=O)c1cnc2ccccn12` [F77, N-(5-(5-(azetidin-1-yl)-1,2,4-oxadiazol-3-yl)-2-methylphenyl)imidazo[1,2-a]pyridine-3-carboxamide], the IC50 under setting [1] turned out to be 0.132 µM. Take `Cc1ccc(-c2noc(N3CC(F)(F)C3)n2)cc1NC(=O)c1cnc2ccccn12` [F78]: under setting [1], the IC50 stood at 0.055 µM. Still for that read-out and setting: with `COC(=O)N1CC(c2nc(-c3cc(NC(=O)c4cnc5ccccn45)c(C)cc3C)no2)C1` [F79, methyl 3-(3-(5-(imidazo[1,2-a]pyridine-3-carboxamido)-2,4-dimethylphenyl)-1,2,4-oxadiazol-5-yl)azetidine-1-carboxylate] the figure was 0.037 µM; with `[2H]C([2H])([2H])c1ccn2c(C(=O)Nc3cc(-c4noc(C5CN(C(=O)OC)C5)n4)ccc3C)cnc2c1` [F80, methyl 3-(3-(4-methyl-3-(7-methyl-d3-imidazo[1,2-a]pyridine-3-carboxamido)phenyl)-1,2,4-oxadiazol-5-yl)azetidine-1-carboxylate], 0.044 µM; with `Cc1ccc(-c2noc(NC3CCOCC3)n2)cc1NC(=O)c1cnc2cc(F)ccn12` [F81], 0.084 µM. Still for that read-out and setting: with `Cc1ccc2ncc(C(=O)Nc3cc(-c4noc(NC5CCOCC5)n4)ccc3C)n2c1` [F82] the figure was 0.055 µM; with `COC(=O)N1CC(c2nc(-c3ccc(C)c(NC(=O)c4cnc5ccc(N6CCOCC6)cn45)c3)no2)C1` [F83], 0.04 µM; with `COC(=O)N1CC(c2nc(-c3ccc(C)c(NC(=O)c4cnc5ccc(COCC(F)(F)F)cn45)c3)no2)C1` [F84], 0.038 µM. Regarding `Cc1ccn2c(C(=O)Nc3cc(-c4noc(N5CC(F)(F)C5)n4)ccc3C)cnc2c1` [F86], under setting [1], the IC50 came to 0.093 µM.

On to `Cc1ccc(-c2noc(N3CC(F)(F)C3)n2)cc1NC(=O)c1cnc2cc(F)ccn12` [F87], for which the IC50 under setting [1] worked out at 0.091 µM. Still for that read-out and setting: with `Cc1ccn2c(C(=O)Nc3cc(-c4noc(N5CC(C)(O)C5)n4)ccc3C)cnc2c1` [F88] the figure was 0.062 µM; with `Cc1ccn2c(C(=O)Nc3cc(-c4noc(N5CCC(F)(F)CC5)n4)ccc3C)cnc2c1` [F89], 0.031 µM; with `Cc1ccn2c(C(=O)Nc3cc(-c4noc(N5CCC(F)CC5)n4)ccc3C)cnc2c1` [F90], 0.033 µM. The same measure, in the same setting: in the case of `Cc1ccn2c(C(=O)Nc3cc(-c4noc(N5CCOCC5)n4)ccc3C)cnc2c1` [F91] it was 0.064 µM; in that of `Cc1ccn2c(C(=O)Nc3cc(-c4noc(N5CCC(F)(F)C5)n4)ccc3C)cnc2c1` [F92], 0.021 µM. Same read-out and setting: in the case of `Cc1ccn2c(C(=O)Nc3cc(-c4noc(N5CCCC(C(F)(F)F)C5)n4)ccc3C)cnc2c1` (stereo not shown) [F93] it was 0.048 µM; in that of `Cc1ccc(-c2nc(N3C[C@@H]4C[C@H]3CO4)no2)cc1NC(=O)c1cnc2ccccn12` [F94], 0.092 µM. `COC(=O)N1CC(c2nc(-c3ccc(C)c(NC(=O)c4cnc5ccc(COCC(F)F)cn45)c3)no2)C1` [F95, methyl 3-(3-(3-(6-((2,2-difluoroethoxy)methyl)imidazo[1,2-a]pyridine-3-carboxamido)-4-methylphenyl)-1,2,4-oxadiazol-5-yl)azetidine-1-carboxylate]: the IC50 under setting [1] turned out to be 0.019 µM. The same measure, in the same setting: with `COC(=O)N1CC(c2nc(-c3ccc(C)c(NC(=O)c4cnc5ccc(COCCF)cn45)c3)no2)C1` [F96] the figure was 0.026 µM.

For `[2H]c1ccn2c(C(=O)Nc3cc(-c4noc(C5CN(C(=O)OC)C5)n4)ccc3C)cnc2c1` [F97, methyl 3-(3-(3-(7-deuteroimidazo[1,2-a]pyridine-3-carboxamido)-4-methylphenyl)-1,2,4-oxadiazol-5-yl)azetidine-1-carboxylate], under setting [1], the IC50 is 0.044 µM.

Consider `[2H]c1ccc2ncc(C(=O)Nc3cc(-c4noc(C5CN(C(=O)OC)C5)n4)ccc3C)n2c1` [F98], for which the IC50 under setting [1] was 0.043 µM. On to `Cc1nc(C)c(-c2ccc3ncc(C(=O)Nc4cc(-c5noc(CN6CC(C#N)C6)n5)ccc4C)n3c2)s1` [F99], for which, under setting [1], the IC50 was found to be 0.049 µM. Regarding `Cc1ccc(-c2nc(CCOC3CCN(Cc4ccccc4)CC3)no2)cc1NC(=O)c1cnc2ccccn12` [F100], under setting [2], the IC50 came out at 0.198 µM. Same read-out and setting: in the case of `COC(=O)N1CC(c2noc(-c3ccc(C)c(NC(=O)c4cnc5ccccn45)c3)n2)C1` [F101] it was 0.332 µM; in that of `Cc1ccc(-c2noc(C3CCOCC3)n2)cc1NC(=O)c1cnc2ccccn12` [F102], 0.286 µM.

As to `Cc1ccc(-c2noc([C@H]3CCCO3)n2)cc1NC(=O)c1cnc2ccccn12` [F103], the IC50 under setting [3] is 0.229 µM.

As to `Cc1ccc(-c2noc([C@@H]3CCCO3)n2)cc1NC(=O)c1cnc2ccccn12` [F104], the IC50 under setting [3] is 0.224 µM.
